test system: PC3 cells; assay: NAMPT Cell Proliferation Assay; assay type: cell-based; conditions: Homo sapiens, PC-3, 120 h, 5 days incubation, cell viability by Cell Titer Glo
How it was run: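 Seeded at 500 cells/well in RPMI with 10% heat-inactivated FBS and left to attach overnight at 37° C, 5% CO2. Compounds were added as 10-fold dilutions […] for 5 days, then viability was read by CellTiter-Glo. IC50s came from sigmoidal fits of percent inhibition.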

| Structure (SMILES) | IC50 [nM] |
| --- | --- |
| O=C(Nc1ccc(C2CCN(C(=O)c3cc(C(F)(F)F)ccc3F)CC2)cc1)[C@H]1CCN(c2cccnn2)C1 [Example 703, (3S)-N-(4-{1-[2-fluoro-5-(trifluoromethyl)benzoyl]piperidin-4-yl}phenyl)-1-(pyridazin-3-yl)pyrrolidine-3-carboxamide] | 8.43 |
| CC(C)c1ccc(C(=O)N2CCC(S(=O)(=O)c3ccc(NC(=O)C4CN(c5cccnn5)C4)cc3)CC2)cc1 [Example 572, N-[4-({1-[4-(propan-2-yl)benzoyl]piperidin-4-yl}sulfonyl)phenyl]-1-(pyridazin-3-yl)azetidine-3-carboxamide] | 59.8 |
| O=C(Nc1ccc(C2CCN(C(=O)C3(c4ccccc4)CC3)CC2)cc1)C1CN(c2cccnn2)C1 [Example 381, N-(4-{1-[(1-phenylcyclopropyl)carbonyl]piperidin-4-yl}phenyl)-1-(pyridazin-3-yl)azetidine-3-carboxamide] | 1.87 |
| O=C(Nc1ccc(C2CCN(C(=O)c3ccccc3F)CC2)cc1)C1CN(c2cccnn2)C1 [Example 428, N-{4-[1-(2-fluorobenzoyl)piperidin-4-yl]phenyl}-1-(pyridazin-3-yl)azetidine-3-carboxamide] | 0.19 |
| CC(C)C(=O)N1CCC(Oc2ccc(NC(=O)C3CN(c4cccnn4)C3)cc2)CC1 [Example 253, N-(4-{[1-(2-methylpropanoyl)piperidin-4-yl]oxy}phenyl)-1-(pyridazin-3-yl)azetidine-3-carboxamide] | 8.09 |
| CCOCC(=O)N1CCC(c2ccc(NC(=O)C3CN(c4cccnc4C)C3)cc2)CC1 [Example 191, N-{4-[1-(ethoxyacetyl)piperidin-4-yl]phenyl}-1-(2-methylpyridin-3-yl)azetidine-3-carboxamide] | 677 |
| Cc1ccc(C(=O)N2CCC(S(=O)(=O)c3ccc(NC(=O)C4CN(c5cccnn5)C4)cc3)CC2)cc1 [Example 567, N-(4-{[1-(4-methylbenzoyl)piperidin-4-yl]sulfonyl}phenyl)-1-(pyridazin-3-yl)azetidine-3-carboxamide] | 76.5 |
| O=C(Nc1ccc(C2(O)CCN(C(=O)OCc3ccccc3)CC2)cc1)C1CN(c2ccc(Cl)nn2)C1 [Example 854, benzyl 4-[4-({[1-(6-chloropyridazin-3-yl)azetidin-3-yl]carbonyl}amino)phenyl]-4-hydroxypiperidine-1-carboxylate] | > 10000 |
| O=C(Nc1ccc(OC2CCN(C(=O)Cc3ccc(C(F)(F)F)cc3)CC2)cc1)C1CN(c2ccnnc2)C1 [Example 273, 1-(pyridazin-4-yl)-N-{4-[(1-{[4-(trifluoromethyl)phenyl]acetyl}piperidin-4-yl)oxy]phenyl}azetidine-3-carboxamide] | 634 |
| CC(C)(C)c1ccc(C(=O)N2CCC(S(=O)(=O)c3ccc(NC(=O)C4CN(c5cccnn5)C4)cc3)CC2)cc1 [Example 565, N-(4-{[1-(4-tert-butylbenzoyl)piperidin-4-yl]sulfonyl}phenyl)-1-(pyridazin-3-yl)azetidine-3-carboxamide] | 74.1 |
| O=C(Nc1ccc(O[C@@H]2CCN(C(=O)c3cccc(Cl)c3)C2)cc1)C1CN(c2ccnnc2)C1 [Example 464, N-(4-{[(3R)-1-(3-chlorobenzoyl)pyrrolidin-3-yl]oxy}phenyl)-1-(pyridazin-4-yl)azetidine-3-carboxamide] | 65.9 |
| O=C(Nc1ccc(C2CCN(C(=O)c3nccs3)CC2)cc1)C1CN(c2cccnc2)C1 [Example 108, 1-(pyridin-3-yl)-N-{4-[1-(1,3-thiazol-2-ylcarbonyl)piperidin-4-yl]phenyl}azetidine-3-carboxamide] | 0.13 |
| O=C(Nc1ccc(S(=O)(=O)C2CCN(C(=O)c3cccc4ccccc34)CC2)cc1)C1CN(c2cccnn2)C1 [Example 591, N-(4-{[1-(naphthalen-1-ylcarbonyl)piperidin-4-yl]sulfonyl}phenyl)-1-(pyridazin-3-yl)azetidine-3-carboxamide] | 93.6 |
| Cc1ncccc1N1CC(C(=O)Nc2ccc(C3CCN(C(=O)CCN4CCOCC4)CC3)cc2)C1 [Example 184, 1-(2-methylpyridin-3-yl)-N-(4-{1-[3-(morpholin-4-yl)propanoyl]piperidin-4-yl}phenyl)azetidine-3-carboxamide] | 604 |
| O=C(Nc1ccc(OC2CCN(C(=O)CC3CCOCC3)CC2)cc1)C1CN(c2cccnc2)C1 [Example 1, 1-(pyridin-3-yl)-N-(4-{[1-(tetrahydro-2H-pyran-4-ylacetyl)piperidin-4-yl]oxy}phenyl)azetidine-3-carboxamide] | 6.56 |
| CC(C)(C)Cc1nc(-c2ccc(NC(=O)C3CN(c4cccnn4)C3)cc2)no1 [Example 806, N-{4-[5-(2,2-dimethylpropyl)-1,2,4-oxadiazol-3-yl]phenyl}-1-(pyridazin-3-yl)azetidine-3-carboxamide] | 3.13 |
| O=C(Nc1ccc(C2(F)CCN(C(=O)c3ccccc3F)CC2)cc1)C1CN(c2cccnn2)C1 [Example 857, N-{4-[4-fluoro-1-(2-fluorobenzoyl)piperidin-4-yl]phenyl}-1-(pyridazin-3-yl)azetidine-3-carboxamide] | 2.52 |

| Structure (SMILES) | IC50 [nM] |
| --- | --- |
| Cc1ccc(C)c(C(=O)N2CCC(c3ccc(NC(=O)C4CN(c5cccnn5)C4)cc3)CC2)c1 [Example 359, N-{4-[1-(2,5-dimethylbenzoyl)piperidin-4-yl]phenyl}-1-(pyridazin-3-yl)azetidine-3-carboxamide] | 1.77 |
| CC(C)Cn1cc(-c2ccc(C(=O)N[C@H]3CCN(c4cnnc(Cl)c4Cl)C3)s2)cn1 [Example 620, N-[(3S)-1-(5,6-dichloropyridazin-4-yl)pyrrolidin-3-yl]-5-[1-(2-methylpropyl)-1H-pyrazol-4-yl]thiophene-2-carboxamide] | 2830 |
| CC(=O)N1CCC(Oc2ccc(NC(=O)C3CN(c4cccnc4)C3)cc2)CC1 [Example 56, N-{4-[(1-acetylpiperidin-4-yl)oxy]phenyl}-1-(pyridin-3-yl)azetidine-3-carboxamide] | 9.27 |
| CC(C)(C)C(=O)N1CCC(c2ccc(NC(=O)[C@@H]3CCN(c4cccnn4)C3)cc2)CC1 [Example 795, (3R)—N-{4-[1-(2,2-dimethylpropanoyl)piperidin-4-yl]phenyl}-1-(pyridazin-3-yl)pyrrolidine-3-carboxamide] | 773 |
| O=C(Nc1ccc(OC2CCN(C(=O)Cc3ccc(OC(F)(F)F)cc3)CC2)cc1)C1CN(c2ccnnc2)C1 [Example 275, 1-(pyridazin-4-yl)-N-{4-[(1-{[4-(trifluoromethoxy)phenyl]acetyl}piperidin-4-yl)oxy]phenyl}azetidine-3-carboxamide] | 683 |
| Cc1ccc(N2CC(C(=O)Nc3ccc(C4CCN(C(=O)c5ccccc5)CC4)cc3)C2)c(F)n1 [Example 668, N-[4-(1-benzoylpiperidin-4-yl)phenyl]-1-(2-fluoro-6-methylpyridin-3-yl)azetidine-3-carboxamide] | > 10000 |
| CCCCC(=O)N1CCC(c2ccc(NC(=O)C3CN(c4cccnc4)C3)cc2)CC1 [Example 98, N-[4-(1-pentanoylpiperidin-4-yl)phenyl]-1-(pyridin-3-yl)azetidine-3-carboxamide] | 6.05 |
| O=C(Nc1ccc(OC2CCN(C(=O)c3ccco3)CC2)cc1)C1CN(c2cccnc2)C1 [Example 63, N-(4-{[1-(furan-2-ylcarbonyl)piperidin-4-yl]oxy}phenyl)-1-(pyridin-3-yl)azetidine-3-carboxamide] | 6.35 |
| CC(C)CC(=O)N1CC[C@@H](Oc2ccc(NC(=O)C3CN(c4cccnn4)C3)cc2)C1 [Example 520, N-(4-{[(3R)-1-(3-methylbutanoyl)pyrrolidin-3-yl]oxy}phenyl)-1-(pyridazin-3-yl)azetidine-3-carboxamide] | 0.47 |
| O=C(Nc1ccc(O[C@@H]2CCN(C(=O)c3cccs3)C2)cc1)C1CN(c2cccnn2)C1 [Example 511, 1-(pyridazin-3-yl)-N-(4-{[(3R)-1-(thiophen-2-ylcarbonyl)pyrrolidin-3-yl]oxy}phenyl)azetidine-3-carboxamide] | 0.82 |
| CCCCC(=O)N1CCC(c2ccc(NC(=O)C3CN(c4cccnn4)C3)cc2)CC1 [Example 318, N-[4-(1-pentanoylpiperidin-4-yl)phenyl]-1-(pyridazin-3-yl)azetidine-3-carboxamide] | 2.72 |
| CN(C)CCC(=O)N1CCC(Oc2ccc(NC(=O)C3CN(c4cccnc4)C3)cc2)CC1 [Example 67, N-(4-{[1-(N,N-dimethyl-beta-alanyl)piperidin-4-yl]oxy}phenyl)-1-(pyridin-3-yl)azetidine-3-carboxamide] | 386 |
| CC1(Cn2cc(-c3ccc(NC(=O)C4CN(c5cccnn5)C4)cc3)cn2)CCOCC1 [Example 748, N-(4-{1-[(4-methyltetrahydro-2H-pyran-4-yl)methyl]-1H-pyrazol-4-yl}phenyl)-1-(pyridazin-3-yl)azetidine-3-carboxamide] | 2.58 |
| CCC(C)(C)C(=O)N1CCC(c2ccc(NC(=O)C3CN(c4cccnn4)C3)cc2)CC1 [Example 325, N-{4-[1-(2,2-dimethylbutanoyl)piperidin-4-yl]phenyl}-1-(pyridazin-3-yl)azetidine-3-carboxamide] | 1.28 |
| O=C(Nc1ccc(C2CCN(C(=O)C3CC3)CC2)cc1F)C1CN(c2cccnn2)C1 [Example 860, N-{4-[1-(cyclopropylcarbonyl)piperidin-4-yl]-2-fluorophenyl}-1-(pyridazin-3-yl)azetidine-3-carboxamide] | 10 |
| O=C(Nc1ccc(C2CCN(C(=O)c3cc(C(F)(F)F)ccc3Cl)CC2)cc1)[C@H]1CCN(c2cccnn2)C1 [Example 690, (3S)-N-(4-{1-[2-chloro-5-(trifluoromethyl)benzoyl]piperidin-4-yl}phenyl)-1-(pyridazin-3-yl)pyrrolidine-3-carboxamide] | 3.14 |
| O=C(Nc1ccc(C2CCN(C(=O)c3cccs3)CC2)cc1)C1CN(c2cccnn2)C1 [Example 376, 1-(pyridazin-3-yl)-N-{4-[1-(thiophen-2-ylcarbonyl)piperidin-4-yl]phenyl}azetidine-3-carboxamide] | 0.62 |

— patent publication US20130303509A1, “NAMPT INHIBITORS” (AbbVie Inc., priority 2012, published 2013)
